From patent publication US10450549B2, “Aryloxyphenoxypropionate tolerance in turfrgass species and use of AAD1 as a selectable marker” (Dow AgroSciences, LLC, priority 2004, dated 2019)
Like-named read-outs stand apart in the source and are kept apart here.

Legend:
[1] = system: DAS Soybean cell suspensions; assay: Glufosinate selection of soybean suspension cells; assay type: cell-based
Protocol: The DAS Soybean cell suspensions were cultured on a 3 d cycle with 10 ml of settled suspension volume transferred to 115 ml of fresh liquid medium. Settled cell volume was determined by allowing the cell suspension to settle for 2 min in the 125-mL flask after vigorous swirling and then drawing cells from the bottom of the flask with a wide bore 10 ml pipette. The flasks were then transferred to orbital shakers at 140 rpm.
Aliquots of 4 ml of the suspension cells at 0.72 OD^600 was transferred along with 200 μM acetosyringone (AS) onto a 100×25 sterile Petri plate. EHA105 Agrobacterium suspension at a density of 1.2 OD^650 in a 100 μL volume was added and mixed well. The Agrobacterium and suspension cell mixture was swirled well and the plate was transferred to dark growth chamber where the temperature was maintained at 25° C.
13.2.1—Selection of soybean suspension cells and isolation of transformed colonies. After 4 days of co-cultivation the plate was swirled again to mix the suspension well and a 1.5 ml aliquot was transferred to the selection medium and spread on the gel medium on a 100×15 ml Petri-plate. […] After a 10 min drying in the hood the plates were incubated for 4 weeks in dark at 28° C. Colonies appeared in selection and a total of 11 colonies were transferred to fresh medium from 3 different experiments and maintained for 3-4 months. […]

wt ARBTH = assay: In vitro plate test of herbicide cross resistance: wild-type Arabidopsis; assay type: in vivo, Arabidopsis thaliana; settings: 7 days
Protocol: (§1) The ability of AAD1 (v3) to provide resistance to other aryloxyphenoxyalkanoate herbicides in transgenic Arabidopsis was determined using a modified in vitro plate assay. Seeds from wild-type Arabidopsis thaliana as well as Arabidopsis thaliana containing the plant optimized AAD1 (v3) gene (T4 homozygous plants id=PAAD1.315.064) were sterilized by agitating for 10 min in a 50% bleach solution. These seeds were then rinsed four times with sterile water to remove the bleach.
(§2) Dose response assays utilized a nutrient media (see below) supplemented with various rates of test compounds. The test compounds were added to the heated media (55° C.) as concentrated solutions in DMSO. Control wells had the appropriate amount of DMSO without any additional compound. The final concentration of DMSO never exceeded 1% (v/v). After thorough mixing, a 6 mL aliquot of the warm media containing the appropriate concentration of compound was added to each well of a 6-well, flat bottom, polystyrene tissue culture tray (Falcon 353046, Becton Dickson and Company, Franklin Lakes, N.J.). After the media solidified, approximately 20 to 30 Arabidopsis seeds were applied on top of the solidified media and the remaining 2 mL of media was poured over the seeds. The plates were lightly agitated to disperse the seeds, covered and allowed to cool until the media had completely solidified. The plates were incubated for 7 days at 25° C. under continual fluorescent lighting (75 μE m^−2 s^−1). Nutrient Media Composition was as described in Example 2.2 and in Somerville and Orgen (1982).
(§3) Assessment of Growth Reduction. The apical portion of the Arabidopsis plants grown in the treated media was assessed visually relative to the apical portion of the plants grown in the media containing only DMSO. Values were recorded as % growth reduction. Assessments of root growth inhibition of the Arabidopsis plants grown in the treated media were achieved by carefully extracting the plants from the media and measuring the length of the root. These root lengths were then compared to the root length of the control plants to determine a % growth reduction. A minimum of five plants were assessed for each treatment. The values recorded are an average of all the plants assessed. The calculated concentration to reach 50% inhibition effect (I50) were determined for both root and shoots of wildtype and AAD1-transformed Arabidopsis. The ratios of resistant to sensitive biotypes are included in Table 19. A ratio>2 for both root and shoot measurements generally signifies significant resistance. The higher the ratio, the greater the level of resistance. […] The broad phenoxy auxin resistance is the first reported in planta.

[2] = system: Arabidopsis thaliana var. Columbia; assay: Arabidopsis plate test bioassay for herbicide degradation; assay type: in vivo; settings: for IC50: Arabidopsis thaliana, 168 h
[3] = system: transformed-control line containing PAT and Cry1F; assay: Foliar-applied auxinic herbicides on control (PAT/Cry1F, wildtype) Arabidopsis, % injury 14 DAT; assay type: in vivo, Arabidopsis thaliana; settings: PatCry1f - Control
Procedure, shortened: (§4)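 Homozygous T4 AAD1 (v3) Arabidopsis (line AAD1.01.315.076) and a PAT/Cry1F transformed control were grown in pots and track-sprayed foliarly at 187 L/ha with herbicides formulated in 200 mM Hepes pH 7.5. Injury was rated 14 days after treatment, with 3-4 replicates averaged over two experiments.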

PAAD1.315.064 ARBTH = assay: In vitro plate test of herbicide cross resistance: homozygous T4 AAD1 (v3) Arabidopsis; assay type: in vivo, Arabidopsis thaliana
Protocol: as §1, §2, §3

AAD1 (v1) = target: T1, AAD1 (v1) (Sphingobium herbicidovorans, UniProt Q8KSC8); assay: HPLC analysis of herbicide degradation by AAD1 (v1) cell extract; assay type: biochemical; settings: AAD1 (v1) cell extract, same conditions as 2,4-D
T1 construct: made in house; host or cells: E. coli BL-21 Star (DE3), plasmid pDAB3203

[4] = system: T4 Arabidopsis homozygous for AAD1 (v3) (line AAD1.01.315.076); assay: Foliar-applied auxinic herbicides on homozygous T4 AAD1 (v3) Arabidopsis, % injury 14 DAT; assay type: in vivo, Arabidopsis thaliana; settings: AAD1.01.315.076.T4 homozygous AAD1 plants
Procedure, shortened: as §4

[5] = system: Non-transformed Hi-II callused suspension tissue; assay: Dose response of non-transformed maize callus tissue; assay type: cell-based
[6] = resistant to sensitive biotype, >2 signifies resistance

T1 sequence (Q8KSC8 whole entry): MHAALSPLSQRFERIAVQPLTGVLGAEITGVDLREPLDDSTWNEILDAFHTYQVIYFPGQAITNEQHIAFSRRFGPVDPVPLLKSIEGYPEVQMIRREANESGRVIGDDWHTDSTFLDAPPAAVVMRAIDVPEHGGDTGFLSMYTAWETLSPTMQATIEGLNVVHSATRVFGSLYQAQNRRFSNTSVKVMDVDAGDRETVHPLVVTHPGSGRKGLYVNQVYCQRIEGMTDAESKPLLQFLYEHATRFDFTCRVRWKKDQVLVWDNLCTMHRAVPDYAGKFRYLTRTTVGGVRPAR

Question: With `CP(=O)(O)CCC(N)C(=O)O` (centres unmarked) [glufosinate ammonium] as the molecule, how does the “response of non-transformed suspension cells” value ([1]; 0.5 mg/l) read?
Answer: sensitive

Question: And the “response of transformed colonies” value ([1]; 5 mg/L (5× concentration), up to 4 months)?
Answer: resistant

Question: What does the source list for `O=C(O)COc1nc(Cl)c(Cl)cc1Cl` [Triclopyr]?
Answer: wt ARBTH root 150 (wt ARBTH; root): 0.02 ppm; wt ARBTH shoot 150 (wt ARBTH; shoot): 0.2 ppm; IC50 ([2]; AAD1 (v1)-expressing lysate, nominal concentration, read-out: GR50, Chemical + AAD1 v1): 1000 nM; IC50 ([2]; root length, 7 days, read-out: GR50, Chemical alone): 255 nM; GR50 ratio ([2]; enzyme-expressing lysate vs blank vector, ≥ 2 = threshold for activity loss): 1; Ave % Injury 14DAT ([3]; 50 g ae/ha foliar): 36%; Ave % Injury 14DAT ([3]; 200 g ae/ha foliar): 65%; Ave % Injury 14DAT ([3]; 800 g ae/ha foliar): 84%; Ave % Injury 14DAT ([3]; 3200 g ae/ha foliar): 95%; root ratio (PAAD1.315.064 ARBTH; [6]): 1; shoot ratio (PAAD1.315.064 ARBTH; [6]): 0.2; resistance afforded by AAD1 (v3) in plate test (PAAD1.315.064 ARBTH; root and shoot assessment): did not effectively protect; PAAD1.315.064 ARBTH root 150 (PAAD1.315.064 ARBTH; root, 7 days): 0.02 ppm; PAAD1.315.064 T3 ARBTH shoot 150 (PAAD1.315.064 ARBTH; shoot, 7 days): 0.04 ppm; enzyme activity on substrate (HPLC) (AAD1 (v1)): No enzyme activity was detected; Ave % Injury 14DAT ([4]; 50 g ae/ha foliar): 31%; Ave % Injury 14DAT ([4]; 200 g ae/ha foliar): 58%; Ave % Injury 14DAT ([4]; 800 g ae/ha foliar): 74%; Ave % Injury 14DAT ([4]; 3200 g ae/ha foliar): 97%

Question: Which “callus growth relative to control lacking haloxyfop phenol” value ([5]; 300 nM) does the source give for `Oc1ccc(Oc2ncc(C(F)(F)F)cc2Cl)cc1` [haloxyfop phenol] here?
Answer: equal to or greater than the control

Question: How did the “callus growth relative to control without cyhalofop phenol” value ([5]; 1 μM) turn out when `N#Cc1ccc(Oc2ccc(O)cc2)c(F)c1` [cyhalofop phenol] was run?
Answer: 76%
